Data from PMC9458059, “Design, Synthesis and Biological Evaluation of New Carbohydrate-Based Coumarin Derivatives as Selective Carbonic Anhydrase IX Inhibitors via “Click” Reaction” (Molecules, 2022).
Like-named read-outs stand apart in the source and are kept apart here.

Key:
HT-29 cells = test: Cell viability MTT assay, HT-29; format: cell-based; conditions: Homo sapiens
Procedure: (§1) In the present study, the potential cytotoxicity of compounds 10a–10p was evaluated in vitro by MTT assay. […] So, half of each cell line were subjected to hypoxic conditions (0.5% O2, 5% CO2 and 94.5% N2) for inducing the expression of CA IX and the other half were incubated under normal conditions (normoxia). Subsequently, all synthesized derivatives were screened at a concentration of 100 μM to test their cytotoxicity in mentioned above cells.
(§2) The two human cancer cell lines were cultivated for 24 h at 37 °C in a 96-well plate. Subsequently, different concentrations of inhibitors were added to 96-well plate and then was incubated for 96 hours. After the MTT solution was added to per well, cancer cells were further incubated for 4 h at 37 °C. Finally, formazan crystals were dissolved by using DMSO. The cancer cells were from American Type Culture Collection.

MDA-MB-231 cells = test: Cell viability MTT assay, MDA-MB-231; format: cell-based; conditions: Homo sapiens
Procedure: as §1, §2

hCA I = molecular target: T1, hCA I (Homo sapiens, UniProt P00915); test: CA inhibition by the esterase assay, hCA I; format: biochemical; conditions: human recombinant enzyme, 4-nitrophenylacetate as substrate
T1 construct: purchased
T1 sequence (P00915 whole entry): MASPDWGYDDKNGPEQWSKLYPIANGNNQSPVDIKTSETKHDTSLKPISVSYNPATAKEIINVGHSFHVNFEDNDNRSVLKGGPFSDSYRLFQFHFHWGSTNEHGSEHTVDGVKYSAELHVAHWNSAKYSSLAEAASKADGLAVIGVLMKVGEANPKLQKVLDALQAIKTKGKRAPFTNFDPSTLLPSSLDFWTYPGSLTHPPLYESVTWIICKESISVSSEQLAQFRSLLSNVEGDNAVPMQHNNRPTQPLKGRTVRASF
Procedure: (§3) The esterase assay was used for testing the inhibitory activities of target compounds against carbonic anhydrases. […] Next, the stock solution of inhibitor was diluted to the specified concentration by using analysis buffer. […] In addition, the purchased CA was diluted with analysis buffer and added to 96-well plates. Next, different concentrations of inhibitors were also added to 96-well plates. To form the inhibitors and enzymes complex, E-I solutions were preincubated together for 4 h before the test at room temperature. Meanwhile, the nonenzymatic hydrolysis rates were tested by the blank control experiments. The absorbances were determined by using multifunctional enzyme marking instrument.

hCA IX = molecular target: T2, hCA IX (Homo sapiens, UniProt Q16790); test: CA inhibition by the esterase assay, hCA IX; format: biochemical; conditions: for IC50: human recombinant enzyme, esterase assay, 4-nitrophenylacetate as substrate; for Selectivity Ratio hCA I/hCA IX / Selectivity Ratio hCA II/hCA IX: ratio of IC50 values
T2 construct: purchased
Procedure: as §3

hCA II = hCA II (Homo sapiens, UniProt P00918); test: CA inhibition by the esterase assay, hCA II; format: biochemical; conditions: human recombinant enzyme, 4-nitrophenylacetate as substrate
Procedure: as §3

[1] = Metabolic stability in mouse liver microsomes; conditions: mouse, liver microsomes
[2] = hypoxia (0.5% O2, 5% CO2 and 94.5% N2), read-out: Cell Viability (%) HT-29 Hypoxia
[3] = normoxia, read-out: Cell Viability (%) HT-29 Normoxia
[4] = hypoxia (0.5% O2, 5% CO2 and 94.5% N2), read-out: Cell Viability (%) MDA-MB-231 Hypoxia
[5] = normoxia, read-out: Cell Viability (%) MDA-MB-231 Normoxia

| SMILES | viability at 100 µM (HT-29 cells; [2]) [%] | viability at 100 µM (HT-29 cells; [3]) [%] | viability at 100 µM (MDA-MB-231 cells; [4]) [%] | viability at 100 µM (MDA-MB-231 cells; [5]) [%] | IC50 (hCA I) [µM] | IC50 (hCA IX) [µM] | Selectivity Ratio hCA I/hCA IX (hCA IX) | Selectivity Ratio hCA II/hCA IX (hCA IX) | IC50 (hCA II) [µM] | CLint scaled at 1 μM [1] [mL/min/kg] | half-life at 1 μM [1] [h] | melting point [°C] |
| --- | --- | --- | --- | --- | --- | --- | --- | --- | --- | --- | --- | --- |
| CC(=O)Nc1nnc(S(N)(=O)=O)s1 [AAZ, acetazolamide, reference compound] | 80.1 | 85.2 | 80.3 | 84.7 |  |  |  |  |  |  |  |  |
| Cc1cc(=O)oc2cc(OCc3cn([C@@H]4O[C@H](CO)[C@@H](O)[C@H](O)[C@H]4N)nn3)ccc12 [Compound 10l, 7-[(1-β-. D-glucosaminogly-1H-1,2,3-triazol-4-yl)methoxy]-4-methyl-2H-chromen-2-one] | 44.8 | 51.2 | 38.5 | 65.1 | 56.9 | 0.032 | 1778 | 981 | 31.4 | 3.07 | 29.8 | 126.2 to 128.4 |
| Cc1cc(=O)oc2cc(OCc3cn([C@@H]4O[C@H](CO)[C@H](O)[C@H](O)[C@H]4O)nn3)ccc12 [Compound 10j, 7-[(1-β-. D-galactopyranosyl-1H-1,2,3-triazol-4-yl)methoxy]-4-methyl-2H-chromen-2-one] | 46.4 | 60.2 | 40.9 | 64.7 | 44.1 | 0.098 | 450 | 164 | 16.1 | 3.5 | 26.1 | 124.2 to 126.6 |
| N[C@@H]1[C@@H](O)[C@H](O)[C@@H](CO)O[C@H]1n1cc(COc2ccc3ccc(=O)oc3c2)nn1 [Compound 10d, 7-[(1-β-. D-glucosaminogly-1H-1,2,3-triazol-4-yl)methoxy]-2H-chromen-2-one] | 45.6 | 57 | 38.9 | 60.2 | 51.5 | 0.057 | 904 | 575 | 32.8 | 4.26 | 21.5 | 131.3 to 134.2 |
| Cc1cc(=O)oc2cc(OCc3cn([C@@H]4OC[C@@H](O)[C@H](O)[C@H]4O)nn3)ccc12 [Compound 10m, 7-[(1-β-. D-xylopyranosyl-1H-1,2,3-triazol-4-yl)methoxy]-4-methyl-2H-chromen-2-one] | 35.5 | 40.5 | 39.8 | 53.2 | 43.9 | 0.067 | 655 | 337 | 22.6 | 3.38 | 27.1 | 122.4 to 123.9 |
| Cc1cc(=O)oc2cc(OCc3cn([C@H]4O[C@@H](C)[C@H](O)[C@@H](O)[C@H]4O)nn3)ccc12 [Compound 10o, 7-[(1-β-. L-rhamnosyl-1H-1,2,3-triazol-4-yl)methoxy]-4-methyl-2H-chromen-2-one] | 33.3 | 45.7 | 38.7 | 60.3 | 57.5 | 0.096 | 599 | 334 | 32.1 | 3.13 | 29.2 | 125.5 to 127.7 |
| O=c1ccc2ccc(OCc3cn([C@@H]4OC[C@@H](O)[C@H](O)[C@H]4O)nn3)cc2o1 [Compound 10e, 7-[(1-β-. D-xylopyranosyl-1H-1,2,3-triazol-4-yl)methoxy]-2H-chromen-2-one] | 39.5 | 49.3 | 42.9 | 58.2 | 42.3 | 0.061 | 693 | 344 | 21 | 4.04 | 22.6 | 128.4 to 130.6 |
| Cc1cc(=O)oc2cc(OCc3cn([C@@H]4O[C@H](CO)[C@@H](O)[C@H]4O)nn3)ccc12 [Compound 10p, 7-[(1-β-. D-ribofuranosyl-1H-1,2,3-triazol-4-yl)methoxy]-4-methyl-2H-chromen-2-one] | 36.7 | 63.1 | 35.2 | 73.1 | 63.4 | 0.098 | 647 | 229 | 22.4 | 2.98 | 30.7 | 123.2 to 125.6 |
| C[C@@H]1O[C@H](n2cc(COc3ccc4ccc(=O)oc4c3)nn2)[C@H](O)[C@H](O)[C@H]1O [Compound 10g, 7-[(1-β-. L-rhamnosyl-1H-1,2,3-triazol-4-yl)methoxy]-2H-chromen-2-one] | 38.7 | 42.4 | 36.1 | 53.2 | 36.5 | 0.124 | 294 | 255 | 31.6 | 3.65 | 25 | 126.1 to 129.6 |
| Cc1cc(=O)oc2cc(OCc3cn([C@@H]4O[C@H](CO)[C@@H](O)[C@H](O)[C@@H]4O)nn3)ccc12 [Compound 10k, 7-[(1-β-. D-mannopyranosyl-1H-1,2,3-triazol-4-yl)methoxy]-4-methyl-2H-chromen-2-one] | 40.3 | 52.3 | 33.7 | 61.3 | 49 | 0.042 | 1167 | 548 | 23 | 3.25 | 28.1 | 121.5 to 122.6 |
| Cc1cc(=O)oc2cc(OCc3cn([C@@H]4OC[C@H](O)[C@H](O)[C@H]4O)nn3)ccc12 [Compound 10n, 7-[(1-β-. L-arabinopyranosyl-1H-1,2,3-triazol-4-yl)methoxy]-4-methyl-2H-chromen-2-one] | 38.2 | 41.5 | 38.5 | 65.7 | 35.7 | 0.045 | 793 | 271 | 12.2 | 3.56 | 25.7 | 129.3 to 132.5 |
| O=c1ccc2ccc(OCc3cn([C@@H]4O[C@H](CO)[C@H](O)[C@H](O)[C@H]4O)nn3)cc2o1 [Compound 10b, 7-[(1-β-. D-galactopyranosyl-1H-1,2,3-triazol-4-yl)methoxy]-2H-chromen-2-one] | 48.7 | 50.5 | 33.7 | 61.4 | 24.3 | 0.074 | 328 | 423 | 31.3 | 4.33 | 21.1 |  |
